In patent US11583556B2, “Modified cells and methods of therapy” (Regents of the University of Minnesota, priority 2015, dated 2023):

How the values were obtained:
Format in all cases: cell-based, human
AAVS1 = assay: Validation of gRNAs in HEK293T cells, Surveyor digest and densitometry, AAVS1 site; settings: AAVS1 target gene site, 3 days
Protocol: (§1) HEK293T cells were plated out at a density of 1×10^5 cells per well in a 24 well plate. 150 uL of Opti-MEM medium was combined with 1.5 ug of gRNA plasmid, 1.5 ug of Cas9 plasmid. Another 150 uL of Opti-MEM medium was combined with 5 ul of Lipofectamine 2000 Transfection reagent (Invitrogen). The solutions were combined together and incubated for 15 minutes at room temperature. The DNA-lipid complex was added dropwise to wells of the 24 well plate. Cells were incubated for 3 days at 37° C. and genomic DNA was collected using the GeneJET Genomic DNA Purification Kit (Thermo Scientific). Activity of the gRNAs was quantified by a Surveyor Digest, gel electrophoresis, and densitometry (FIG. 60 and FIG. 61) (Guschin, D. Y., et al., “A Rapid and General Assay for Monitoring Endogenous Gene Modification,” Methods in Molecular Biology, 649: 247-256 (2010)).
(§2) The percentage numbers in Table 7 indicated the percent of gene modifications in the sample.

CCR5 = assay: Validation of gRNAs in HEK293T cells, Surveyor digest and densitometry, CCR5 site; settings: CCR5 target gene site, 3 days
Protocol: as §1
(§3) The efficiencies of Cas9 in creating double strand break (DSB) with the assistance of different gRNA sequences were listed in Table 7. The percentage numbers in Table 7 indicated the percent of gene modifications in the sample.

CTLA4 = assay: Validation of gRNAs in HEK293T cells, Surveyor digest and densitometry, CTLA4 site; settings: CTLA4 target gene site, 3 days
Protocol: as §1, §3

HPRT = assay: Validation of gRNAs in HEK293T cells, Surveyor digest and densitometry, HPRT site; settings: HPRT target gene site, 3 days
Protocol: as §1, §3

PD1 = assay: Validation of gRNAs in HEK293T cells, Surveyor digest and densitometry, PD1 site; settings: PD1 target gene site, 3 days
Protocol: as §1, §2

AAVS1 gRNA#1: guide RNA to AAVS1; sense oligo SEQ ID 19 CACCGTGGGGGTTAGACCCAATATC
efficiency of Cas9/gRNA pair in creating double strand break (percent of gene modifications) (AAVS1): 32.99%

AAVS1 gRNA#2: guide RNA to AAVS1; sense oligo SEQ ID 21 CACCGACCCCACAGTGGGGCCACTA
efficiency of Cas9/gRNA pair in creating double strand break (percent of gene modifications) (AAVS1): 27.10%

AAVS1 gRNA#5: guide RNA to AAVS1; sense oligo SEQ ID 27 CACCGCCGGCCCTGGGAATATAAGG
efficiency of Cas9/gRNA pair in creating double strand break (percent of gene modifications) (AAVS1): 27.55%

AAVS1 gRNA#6: guide RNA to AAVS1; sense oligo SEQ ID 29 CACCGCGGGCCCCTATGTCCACTTC
efficiency of Cas9/gRNA pair in creating double strand break (percent of gene modifications) (AAVS1): 39.62%

CCR5 gRNA#1: guide RNA to CCR5; sense oligo SEQ ID 61 CACCGACAATGTGTCAACTCTTGAC
efficiency of Cas9/gRNA pair in creating double strand break (percent of gene modifications) (CCR5): 21.47%

CCR5 gRNA#2: guide RNA to CCR5; sense oligo SEQ ID 63 CACCGTCATCCTCCTGACAATCGAT
efficiency of Cas9/gRNA pair in creating double strand break (percent of gene modifications) (CCR5): >60%

CCR5 gRNA#3: guide RNA to CCR5; sense oligo SEQ ID 65 CACCGGTGACAAGTGTGATCACTT
efficiency of Cas9/gRNA pair in creating double strand break (percent of gene modifications) (CCR5): 55.98%

CCR5 gRNA#4: guide RNA to CCR5; sense oligo SEQ ID 67 CACCGACACAGCATGGACGACAGCC
efficiency of Cas9/gRNA pair in creating double strand break (percent of gene modifications) (CCR5): 45.99%

CCR5 gRNA#5: guide RNA to CCR5; sense oligo SEQ ID 69 CACCGATCTGGTAAAGATGATTCC
efficiency of Cas9/gRNA pair in creating double strand break (percent of gene modifications) (CCR5): 36.07%

CCR5 gRNA#6: guide RNA to CCR5; sense oligo SEQ ID 71 CACCGTTGTATTTCCAAAGTCCCAC
efficiency of Cas9/gRNA pair in creating double strand break (percent of gene modifications) (CCR5): 33.17%

CTLA4 gRNA#1: guide RNA to CTLA4; sense oligo SEQ ID 47 CACCGCCGGGTGACAGTGCTTCGGC
efficiency of Cas9/gRNA pair in creating double strand break (percent of gene modifications) (CTLA4): 40.96%

CTLA4 gRNA#2: guide RNA to CTLA4; sense oligo SEQ ID 49 CACCGTGCGGCAACCTACATGATG
efficiency of Cas9/gRNA pair in creating double strand break (percent of gene modifications) (CTLA4): 56.10%

CTLA4 gRNA#3: guide RNA to CTLA4; sense oligo SEQ ID 51 CACCGCTAGATGATTCCATCTGCAC
efficiency of Cas9/gRNA pair in creating double strand break (percent of gene modifications) (CTLA4): 39.33%

CTLA4 gRNA#4: guide RNA to CTLA4; sense oligo SEQ ID 53 CACCGAGGTTCACTTGATTTCCAC
efficiency of Cas9/gRNA pair in creating double strand break (percent of gene modifications) (CTLA4): 40.13%

CTLA4 gRNA#5: guide RNA to CTLA4; sense oligo SEQ ID 55 CACCGCCGCACAGACTTCAGTCACC
efficiency of Cas9/gRNA pair in creating double strand break (percent of gene modifications) (CTLA4): 15.90%

CTLA4 gRNA#6: guide RNA to CTLA4; sense oligo SEQ ID 57 CACCGCTGGCGATGCCTCGGCTGC
efficiency of Cas9/gRNA pair in creating double strand break (percent of gene modifications) (CTLA4): 36.93%

HPRT gRNA#1: guide RNA to HPRT; sense oligo SEQ ID 5 CACCGCACGTGTGAACCAACCCGCC
efficiency of Cas9/gRNA pair in creating double strand break (percent of gene modifications) (HPRT): 27.85% ^

HPRT gRNA#2: guide RNA to HPRT; sense oligo SEQ ID 7 CACCGAAACAACAGGCCGGGCGGGT
efficiency of Cas9/gRNA pair in creating double strand break (percent of gene modifications) (HPRT): 30.04% ^

HPRT gRNA#3: guide RNA to HPRT; sense oligo SEQ ID 9 CACCGACAAAAAAATTAGCCGGGTG
efficiency of Cas9/gRNA pair in creating double strand break (percent of gene modifications) (HPRT): <1%

HPRT gRNA#4: guide RNA to HPRT; sense oligo SEQ ID 11 CACCGTAAATTTCTCTGATAGACTA
efficiency of Cas9/gRNA pair in creating double strand break (percent of gene modifications) (HPRT): <5%

HPRT gRNA#5: guide RNA to HPRT; sense oligo SEQ ID 13 CACCGTGTTTCAATGAGAGCATTAC
efficiency of Cas9/gRNA pair in creating double strand break (percent of gene modifications) (HPRT): <1%

HPRT gRNA#6: guide RNA to HPRT; sense oligo SEQ ID 15 CACCGGTCTCGAACTCCTGAGCTC
efficiency of Cas9/gRNA pair in creating double strand break (percent of gene modifications) (HPRT): <5%

PD1 gRNA#1: guide RNA to PD-1; sense oligo SEQ ID 33 CACCGCGGAGAGCTTCGTGCTAAAC
efficiency of Cas9/gRNA pair in creating double strand break (percent of gene modifications) (PD1): 10.83%

PD1 gRNA#2: guide RNA to PD-1; sense oligo SEQ ID 35 CACCGCCTGCTCGTGGTGACCGAAG
efficiency of Cas9/gRNA pair in creating double strand break (percent of gene modifications) (PD1): >60%

PD1 gRNA#4: guide RNA to PD-1; sense oligo SEQ ID 39 CACCGAGGCGGCCAGCTTGTCCGTC
efficiency of Cas9/gRNA pair in creating double strand break (percent of gene modifications) (PD1): 20.87%

PD1 gRNA#5: guide RNA to PD-1; sense oligo SEQ ID 41 CACCGCGTTGGGCAGTTGTGTGACA
efficiency of Cas9/gRNA pair in creating double strand break (percent of gene modifications) (PD1): 30.60%

PD1 gRNA#6: guide RNA to PD-1; sense oligo SEQ ID 43 CACCGACGGAAGCGGCAGTCCTGGC
efficiency of Cas9/gRNA pair in creating double strand break (percent of gene modifications) (PD1): 25.91%
